Test results taken from paper PMC10580383, “Development of Melanocortin 4 Receptor Agonists by Exploiting Animal-Derived Macrocyclic, Disulfide-Rich Peptide Scaffolds” (ACS Pharmacology & Translational Science, 2023).
Where a SMILES comes first, the peptide text is derived from it. Bridges are numbered along the chain shown (N, C = ends). [ ]: non-standard residue; d: D form.

How the values were obtained:
[1] = molecular target: T1, mouse melanocortin 4 receptor (MC4R) (Mus musculus, UniProt P56450); experiment: cAMP second messenger quantification assay (Cisbio HTRF cAMP Gs kit); assay type: cell-based; conditions: for Emax: HEK293, read-out: efficacy cAMP Emax ± SD
T1 construct: expressed in transfected cells; host or cells: HEK293 / HEK293T, transient transfection
T1 sequence (P56450 whole entry): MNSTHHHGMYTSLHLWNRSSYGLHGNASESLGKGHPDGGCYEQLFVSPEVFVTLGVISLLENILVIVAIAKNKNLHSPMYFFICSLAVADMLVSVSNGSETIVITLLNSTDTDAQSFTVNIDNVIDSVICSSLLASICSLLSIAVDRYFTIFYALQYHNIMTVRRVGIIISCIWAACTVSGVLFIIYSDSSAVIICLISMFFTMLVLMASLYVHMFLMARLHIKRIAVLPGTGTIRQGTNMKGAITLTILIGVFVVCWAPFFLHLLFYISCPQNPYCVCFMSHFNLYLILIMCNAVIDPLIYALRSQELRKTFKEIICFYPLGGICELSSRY

human MC4R [2] = molecular target: T2, human MC4R (Homo sapiens, UniProt P32245); experiment: nanoluciferase complementation assay MC4R-LgBit / Gαs-SmBit (Gαs coupling); assay type: cell-based; conditions: for increase in efficacy in recruiting Gαs compared to α-MSH: nanoluciferase complementation MC4R-LgBit/Gαs-SmBit, normalized to α-MSH maximum response
T2 construct: expressed in transfected cells; host or cells: HEK293T, transient co-transfection
T2 sequence (P32245 whole entry): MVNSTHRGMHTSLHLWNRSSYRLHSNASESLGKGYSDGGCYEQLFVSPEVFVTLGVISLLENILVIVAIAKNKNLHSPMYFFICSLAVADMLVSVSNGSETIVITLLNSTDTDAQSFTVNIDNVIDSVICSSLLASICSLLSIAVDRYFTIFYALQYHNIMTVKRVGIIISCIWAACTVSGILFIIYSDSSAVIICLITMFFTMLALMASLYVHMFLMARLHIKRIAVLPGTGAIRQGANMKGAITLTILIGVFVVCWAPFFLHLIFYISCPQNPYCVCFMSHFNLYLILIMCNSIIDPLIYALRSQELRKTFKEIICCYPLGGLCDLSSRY
Procedure: We proceeded with more detailed pharmacological characterization of Pr4LP1 and Ar3LP1 to gain more insights into the signaling pathways that follow MC4R stimulation.
Figure 5 Biosensor characterization of Pr4LP1 and Ar3LP1 peptides acting as agonists at MC4R. […] Data are represented as means ± SEM for all experimental replicates and were performed in triplicate from n ≥ 3 independent experiments.
The plasmid constructs used to show interactions between human MC4R and Gαs protein and/or β-arrestin-2 were designed with fused SmBit and LgBit proteins, that upon complementation form the fully functional nanoluciferase enzyme that can produce detectable bioluminescence upon addition of the substrate furimazine. For the Gαs coupling, we used a LgBit fused at the C-terminus of MC4R (MC4R-LgBit) and cotransfected with the Gαs-SmBit construct. For the β-arrestin-2 recruitment assay, we used a C-terminally fused MC4R-SmBit and the β-arrestin-2-LgBit constructs. The cotransfection ratio was 1:10 (Gαs/β-arrestin-2/receptor). Cells were harvested, washed, and resuspended in fresh medium 24 h post-transfection. Approximately 5 × 10^4 cells/well were distributed in precoated 96-well white plates and allowed to adhere overnight. On an experimental day, cells were washed with HBSS and maintained in HBSS (80 μL/well). The furimazine substrate for the luciferase (50×) stock was diluted at 1× with HBSS, and 10 μL/well was added to all assay wells and incubated for 12 min before addition of ligands. Ligand dilutions were prepared at 10× final concentration in HBSS, and 10 μL/well was added to the assay wells. Plates were read 5 min following ligand addition using a ClarioStar equipped with a nanoluc-compatible optic module (BMG Labtech). […] EC50/Emax values were calculated via a nonlinear regression analysis.

human MC1R = experiment: pGlo cAMP accumulation assay; assay type: cell-based; conditions: cells transiently expressing human MC1R, up to 10 μM, three independent experiments in technical triplicate
Procedure: (§1) Following functional analysis at MC4R, we were intrigued to know how selective Pr4LP1 and Ar3LP1 were for MC4R vs other melanocortin receptors.
(§2) Figure 6 Selectivity determination of Pr4LP1 and Ar3LP1 peptides at MC4R vs MC1R and MC3R. […] Data (not normalized) are represented as mean ± SEM from three independent experiments performed in technical triplicate.
(§3) Cells transiently expressing human MC1R, MC3R, or MC4R were incubated for 24 h. Afterward all contents of each well were carefully removed, and cells were then equilibrated in cAMP buffer [1× HBSS, 24 mM HEPES, 0.1% (w/v) BSA, 3.96 mM NaHCO3, 1 mM MgSO4, 1.3 mM CaCl2 dihydrate], supplemented with firefly D-luciferin free acid (0.45 mg/mL) (NanoLight Technology). 90 μL of cAMP buffer was added to all wells, and the 96-well plate was then incubated (28 °C, 1 h). Bioluminescence was measured using the CLARIOstar Plus Plate Reader (BMG LabTech). Prior to injecting the treatment ligands, approximately 5–10 basal readings were performed until stabilization was reached. Peptide ligands (10 μL) were added to the well. Bioluminescence was measured for a total of 30 cycles (1 min per cycle, 1 s integration time, without filter, a fixed gain of 3000, and autofocus).

human MC3R = experiment: pGlo cAMP accumulation assay; assay type: cell-based; conditions: cells transiently expressing human MC3R, up to 10 μM, three independent experiments in technical triplicate
Procedure: as §1, §2, §3

human MC4R [3] = experiment: pGlo cAMP accumulation assay; assay type: cell-based; conditions: cells transiently expressing human MC4R, 1 and 10 μM, three independent experiments in technical triplicate
Procedure: as §1, §2, §3

MC4R over MC1R and MC3R = conditions: Figure S6

Compound CC(C)[C@@H]1NC(=O)[C@H](Cc2ccc(O)cc2)NC(=O)[C@H](Cc2c[nH]c3ccccc23)NC(=O)[C@@H](NC(=O)[C@H](Cc2ccccc2)NC(=O)CN)CSSC[C@@H](C(=O)N[C@@H](CC(N)=O)C(N)=O)NC(=O)[C@H](CCCNC(=N)N)NC(=O)[C@H](CCCNC(=N)N)NC(=O)[C@H](Cc2ccc(O)cc2)NC(=O)[C@@H]2CSSC[C@H](NC1=O)C(=O)N1CCC[C@H]1C(=O)N[C@@H](Cc1c[nH]cn1)C(=O)N[C@H](Cc1ccccc1)C(=O)N[C@@H](Cc1c[nH]cn1)C(=O)N[C@@H](Cc1c[nH]c3ccccc13)C(=O)N2 [Ar3LP1] (H-GFCWYVCPH[dF]HWCYRRCN-NH2; disulfide 3-17, 7-13) has an EC50 [1] of 1 nM, an Emax [1] of 98 ± 4% and an EC50 (human MC4R [2]) of 0.702 nM. The “increase in efficacy in recruiting Gαs compared to α-MSH” value (human MC4R [2]) was 25%, the “cAMP response at MC1R (RLU)” value (human MC1R) was “no response” and the “cAMP response at MC3R (RLU)” value (human MC3R) was “no response”. The “cAMP response at MC4R (RLU)” value (human MC4R [3]) was “activate the receptor” and the “selectivity in recruiting β-arrestin-2” value (MC4R over MC1R and MC3R) was “selective for MC4R over MC1R and MC3R”.

Compound CC(C)C[C@H](NC(=O)[C@H](CCCNC(=N)N)NC(=O)CNC(=O)CNC(=O)[C@@H](N)CCCNC(=N)N)C(=O)N[C@H]1CSSC[C@@H](C(=O)N[C@H](C(=O)NCC(=O)N[C@@H](CCCNC(=N)N)C(N)=O)C(C)C)NC(=O)[C@H](Cc2ccccc2)NC(=O)[C@@H]2CSSC[C@H](NC(=O)[C@H](Cc3ccc(O)cc3)NC1=O)C(=O)N1CCC[C@H]1C(=O)N[C@@H](Cc1c[nH]cn1)C(=O)N[C@H](Cc1ccccc1)C(=O)N[C@@H](Cc1c[nH]cn1)C(=O)N[C@@H](Cc1c[nH]c3ccccc13)C(=O)N2 [Pr4LP1] (H-RGGRLCYCPH[dF]HWCFCVGR-NH2; disulfide 6-16, 8-14) has an EC50 [1] of 3.98 nM, an Emax [1] of 96 ± 3% and an EC50 (human MC4R [2]) of 0.193 nM. The “increase in efficacy in recruiting Gαs compared to α-MSH” value (human MC4R [2]) was 8.8%, the “cAMP response at MC1R (RLU)” value (human MC1R) was “no response” and the “cAMP response at MC3R (RLU)” value (human MC3R) was “no response”. For the same compound, the “cAMP response at MC4R (RLU)” value (human MC4R [3]) was “activate the receptor” and the “selectivity in recruiting β-arrestin-2” value (MC4R over MC1R and MC3R) was “selective for MC4R over MC1R and MC3R”.
